Measured values reported in patent publication US12612371B2, “Sigma-1 receptor ligands and therapeutic uses thereof” (UNIVERSITE DE STRASBOURG, priority 2019, dated 2026).

Molecular target: T1, sigma 1 (h) (Homo sapiens, UniProt Q99720)
T1 construct: incubating Jurkat cell membranes (10-20 mg protein per tube) with [^3H](+) pentazocine; endogenous in cells; host or cells: Jurkat cell membranes
Experiment: σ1 binding assay ([3H](+)pentazocine displacement, Jurkat cell membranes)
Conditions: [3H](+)pentazocine 15 nM, 37° C., 2 hours; for inhibition at 0.01 µM: compound at 10 nM, read-out: Sigma-1 receptor % inhibition 10 nM; for inhibition at 0.1 µM: compound at 100 nM, read-out: Sigma-1 receptor % inhibition 100 nM
Protocol: The σ1 binding assays were performed according to Ganapathy et al (Ganapathy, M. E. et al. (1999), J. Pharmacol. Exp. Ther., 28:251-260). The σ1 binding assay was carried out by incubating Jurkat cell membranes (10-20 mg protein per tube) with [^3H](+) pentazocine a selective S1R ligand (15 nM) and a range of concentration of tested compounds, at 37° C. for 2 hours in 5 mM tris/HCl buffer (pH=7.4). The inhibition of [3H]-(+)-pentazocine binding assay is mainly used to determine the inhibition constant (Ki) of potential SIR ligands. These assays are performed with a single concentration of [^3H]-(+)-pentazocine at a concentration near its KD and increasing concentrations of non-radioactive ligands.

T1 sequence (Q99720 whole entry): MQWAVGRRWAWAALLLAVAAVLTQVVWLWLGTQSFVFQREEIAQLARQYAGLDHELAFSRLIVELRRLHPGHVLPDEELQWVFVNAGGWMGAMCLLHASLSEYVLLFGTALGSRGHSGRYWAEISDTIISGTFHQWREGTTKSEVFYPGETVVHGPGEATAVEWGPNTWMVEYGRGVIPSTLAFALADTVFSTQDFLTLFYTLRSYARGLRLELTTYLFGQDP

SMILES | inhibition at 0.01 µM [%] | inhibition at 0.1 µM [%]
CN(CCCn1nccc(-c2ccccc2)c1=O)Cc1ccccc1 [9a, 2-(3-(benzyl(methyl)amino)propyl)-4-phenylpyridazin-3(2H)-one] | 61.5 | 
O=c1c(-c2ccccc2)ccnn1CCCN1CCCCCC1 [9b, 2-(3-(azepan-1-yl)propyl)-4-phenylpyridazin-3(2H)-one] | 47.4 | 
O=c1c(-c2ccccc2)ccnn1CCCN1CCOCC1 [9c, 2-[3-(morpholin-4-yl)propyl]-4-phenyl-2,3-dihydropyridazin-3-one] | 7.6 | 
CN(CCCCn1nccc(-c2ccccc2)c1=O)Cc1ccccc1 [10a, 2-(4-(benzyl(methyl)amino)butyl)-4-phenylpyridazin-3(2H)-one] | 87.5 | 
O=c1c(-c2ccccc2)ccnn1CCCCN1CCOCC1 [10b, 2-(4-morpholinobutyl)-4-phenylpyridazin-3(2H)-one] | 14.5 | 
O=c1c(-c2ccccc2)ccnn1CCCCN1CCCOCC1 [10c, 2-(4-(1,4-oxazepan-4-yl)butyl)-4-phenylpyridazin-3(2H)-one] | 40.3 | 80.3
O=c1c(-c2ccccc2)ccnn1CCCCN1CCCCC1 [10d, 4-phenyl-2-(4-(piperidin-1-yl)butyl)pyridazin-3(2H)-one] | 28.3 | 
O=c1c(-c2ccccc2)ccnn1CCCCN1CCCCCC1 [10e, 2-(4-(azepan-1-yl)butyl)-4-phenylpyridazin-3(2H)-one] | 30.2 | 
O=c1c(-c2ccccc2)ccnn1CCCCN1CCCCCCC1 [10f, 2-(4-(azocan-1-yl)butyl)-4-phenylpyridazin-3(2H)-one] | 70 | 
O=c1c(-c2ccccc2)ccnn1CCCCN1CCc2ccccc2C1 [10g, 2-(4-(3,4-dihydroisoquinolin-2(1H)-yl)butyl)-4-phenylpyridazin-3(2H)-one] | 73.5 | 
O=c1c(-c2ccccc2)ccnn1CCCCN1CCc2ccccc2CC1 [10h, 4-phenyl-2-(4-(1,2,4,5-tetrahydro-3H-benzo[d]azepin-3-yl)butyl)pyridazin-3(2H)-one] | 70.8 | 
O=c1c(-c2ccccc2)ccnn1CCCCNC12CC3CC(CC(C3)C1)C2 [10i, 2-(4-(adamantan-1-ylamino)butyl)-4-phenylpyridazin-3(2H)-one] | 37.1 | 
CN(CCCCn1nccc(-c2ccccc2)c1=O)C12CC3CC(CC(C3)C1)C2 [10j, 2-(4-(adamantan-1-yl(methyl)amino)butyl)-4-phenylpyridazin-3(2H)-one] | 4.9 | 
CC1(C)CC2CC(C)(CN2CCCCn2nccc(-c3ccccc3)c2=O)C1 (stereo not shown) [10k, 4-phenyl-2-(4-(1,3,3-trimethyl-6-azabicyclo[3.2.1]octan-6-yl)butyl)pyridazin-3(2H)-one] | 3.7 | 
O=c1c(-c2ccccc2)ccnn1CCCCN(Cc1ccccc1)CC1CCCO1 (stereo not shown) [10m, 2-(4-(benzyl((tetrahydrofuran-2-yl)methyl)amino)butyl)-4-phenylpyridazin-3(2H)-one] | 28.8 | 
COCC(c1ccccc1)N(C)CCCCn1nccc(-c2ccccc2)c1=O (stereo not shown) [10o, 2-(4-((2-methoxy-1-phenylethyl)(methyl)amino)butyl)-4-phenylpyridazin-3(2H)-one] | 25.6 | 68.3
CN(CCO)CCCCn1nccc(-c2ccccc2)c1=O [10p, 2-(4-((2-hydroxyethyl)(methyl)amino)butyl)-4-phenylpyridazin-3(2H)-one] |  | 9.7
CN(CCCCn1nccc(-c2ccccc2)c1=O)CC1CCOCC1 [10q, 2-(4-(methyl((tetrahydro-2H-pyran-4-yl)methyl)amino)butyl)-4-phenylpyridazin-3(2H)-one] | 29.4 | 79.6
O=c1c(-c2ccccc2)ccnn1CCCCN1CCCC(c2ccccc2)C1 (stereo not shown) [10r, 4-phenyl-2-(4-(3-phenylpiperidin-1-yl)butyl)pyridazin-3(2H)-one] | 78.7 | 92.1
O=c1c(-c2ccccc2)ccnn1CCCCN1CCC(c2ccccc2)CC1 [10s, 4-phenyl-2-(4-(4-phenylpiperidin-1-yl)butyl)pyridazin-3(2H)-one] | 64.6 | 
O=c1c(-c2ccccc2)ccnn1CCCCN1CCCC(CO)C1 (stereo not shown) [10t, 2-(4-(3-(hydroxymethyl)piperidin-1-yl)butyl)-4-phenylpyridazin-3(2H)-one] | 9.7 | 38.2
O=c1c(-c2ccccc2)ccnn1CCCCN1CCCCC1CCO (stereo not shown) [10u, 2-(4-(2-(2-hydroxyethyl)piperidin-1-yl)butyl)-4-phenylpyridazin-3(2H)-one] |  | 26.5
O=c1c(-c2ccccc2)ccnn1CCCCN1CCOC(c2ccccc2)C1 (stereo not shown) [10w, 4-phenyl-2-(4-(2-phenylmorpholino)butyl)pyridazin-3(2H)-one] | 37.6 | 79.4

SMILES | inhibition at 0.01 µM [%] | inhibition at 0.1 µM [%]
CC1CN(CCCCn2nccc(-c3ccccc3)c2=O)CC(C)O1 (stereo not shown) [10x, 2-(4-(2,6-dimethylmorpholino)butyl)-4-phenylpyridazin-3(2H)-one] | 34.6 | 76.2
O=c1c(-c2ccccc2)ccnn1CCCCN1CCN(Cc2ccccc2)CC1 [10z, 2-[4-(4-benzylpiperazin-1-yl)butyl]-4-phenyl-2,3-dihydropyridazin-3-one] | 64.2 | 
O=c1c(-c2ccccc2)ccnn1CCCCN1CCC(Cc2ccccc2)CC1 [11a, 2-[4-(4-benzylpiperidin-1-yl)butyl]-4-phenyl-2,3-dihydropyridazin-3-one] | 83.4 | 
CCN(CCCCn1nccc(-c2ccccc2)c1=O)Cc1ccccc1 [11b, 2-{4-[benzyl(ethyl)amino]butyl}-4-phenyl-2,3-dihydropyridazin-3-one] | 73.9 | 
O=c1c(-c2ccccc2)ccnn1CCCCN1CCN(c2ccccc2)CC1 [11d, 4-phenyl-2-[4-(4-phenylpiperazin-1-yl)butyl]-2,3-dihydropyridazin-3-one] | 16.1 | 
O=c1c(-c2ccccc2)ccnn1CCCCN1CCC[C@H]2CCCC[C@@H]21 [11e, 2-{4-[(4aR,8aS)-decahydroquinolin-1-yl]butyl}-4-phenyl-2,3-dihydropyridazin-3-one] | 7.4 | 
O=c1c(-c2ccc(F)cc2)ccnn1CCCCN1CCOCC1 [11h, 4-(4-fluorophenyl)-2-(4-morpholinobutyl)pyridazin-3(2H)-one] | 12 | 
O=c1c(-c2ccc(Cl)cc2)ccnn1CCCCN1CCOCC1 [11k, 4-(4-chlorophenyl)-2-[4-(morpholin-4-yl)butyl]-2,3-dihydropyridazin-3-one] | 1.9 | 
O=c1c(-c2cccc(Cl)c2)ccnn1CCCCN1CCOCC1 [11l, 4-(3-chlorophenyl)-2-[4-(morpholin-4-yl)butyl]-2,3-dihydropyridazin-3-one] | 69.1 | 
O=c1c(-c2ccccc2Cl)ccnn1CCCCN1CCOCC1 [11m, 4-(2-chlorophenyl)-2-[4-(morpholin-4-yl)butyl]-2,3-dihydropyridazin-3-one] | 5.04 | 
O=c1c(-c2ccc(C(F)(F)F)cc2)ccnn1CCCCN1CCOCC1 [11n, 2-[4-(morpholin-4-yl)butyl]-4-[4-(trifluoromethyl)phenyl]-2,3-dihydropyridazin-3-one] | 6.13 | 
O=c1c(-c2ccsc2)ccnn1CCCCN1CCOCC1 [11o, 2-[4-(morpholin-4-yl)butyl]-4-(thiophen-3-yl)-2,3-dihydropyridazin-3-one] | 33.4 | 
O=c1c(-c2ccoc2)ccnn1CCCCN1CCOCC1 [11p, 4-(furan-3-yl)-2-[4-(morpholin-4-yl)butyl]-2,3-dihydropyridazin-3-one] | 15.6 | 
Cc1cc(-c2ccccc2)c(=O)n(CCCCN(C)Cc2ccccc2)n1 [11v, 2-{4-[benzyl(methyl)amino]butyl}-6-methyl-4-phenyl-2,3-dihydropyridazin-3-one] |  | 86
Cc1cc(-c2ccccc2)c(=O)n(CCCCN2CCCCCC2)n1 [11w, 2-[4-(azepan-1-yl)butyl]-6-methyl-4-phenyl-2,3-dihydropyridazin-3-one] |  | 53.9
O=c1c(CCc2ccccc2)ccnn1CCCCN1CCOCC1 [21a, 2-[4-(morpholin-4-yl)butyl]-4-(2-phenylethyl)-2,3-dihydropyridazin-3-one] | 1.1 | 
O=c1c(N2CCCCC2)ccnn1CCCCN1CCOCC1 [25a, 2-(4-morpholinobutyl)-4-(piperidin-1-yl)pyridazin-3(2H)-one] | 15.8 | 
CN(Cc1ccccc1)CC(O)CCn1nccc(-c2ccccc2)c1=O (stereo not shown) [33a, 2-(4-(benzyl(methyl)amino)-3-hydroxybutyl)-4-phenylpyridazin-3(2H)-one] | 12.3 | 
Cc1ncc(-c2ccccc2)c(=O)n1CCCCN1CCOCC1 [40a, 2-methyl-3-(4-morpholinobutyl)-5-phenylpyrimidin-4(3H)-one] | 1.4 | 
O=c1c(-c2ccccc2)cncn1CCCCN1CCOCC1 [40b, 3-[4-(morpholin-4-yl)butyl]-5-phenyl-3,4-dihydropyrimidin-4-one] | 1.4 | 
O=c1c(-c2ccccc2)cccn1CCCCN1CCOCC1 [41a, 1-[4-(morpholin-4-yl)butyl]-3-phenyl-1,2-dihydropyridin-2-one] | 3 | 
O=c1cc(-c2ccccc2)cnn1CCCCN1CCOCC1 [compound 14, 2-(4-morpholinobutyl)-5-phenylpyridazin-3(2H)-one] | 2.1 | 
